The text below walks through data of US20220289746A1, “PYRROLIDINE DERIVATIVES” (Hoffmann-La Roche Inc., priority 2019, published 2022).

Assay [1] addresses T1, human M4 receptor (Homo sapiens, UniProt P08173).
T1 sequence (P08173 1-479): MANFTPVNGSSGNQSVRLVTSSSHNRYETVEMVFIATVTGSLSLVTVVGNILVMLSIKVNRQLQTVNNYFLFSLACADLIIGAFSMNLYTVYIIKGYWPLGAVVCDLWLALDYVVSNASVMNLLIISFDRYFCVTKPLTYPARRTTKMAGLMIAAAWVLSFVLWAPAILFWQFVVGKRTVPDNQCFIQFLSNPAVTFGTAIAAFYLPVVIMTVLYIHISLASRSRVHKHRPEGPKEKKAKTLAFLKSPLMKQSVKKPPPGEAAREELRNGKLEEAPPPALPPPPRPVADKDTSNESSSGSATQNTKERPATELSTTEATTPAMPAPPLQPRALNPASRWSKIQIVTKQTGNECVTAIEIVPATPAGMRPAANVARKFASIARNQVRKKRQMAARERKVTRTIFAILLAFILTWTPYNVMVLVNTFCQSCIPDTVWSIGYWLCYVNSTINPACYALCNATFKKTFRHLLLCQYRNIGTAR
The assay is described as follows: cAMP assay for M4 positive allosteric modulators (M4 PAM cAMP assay). It is filed as cell-based. Set-up: expressed in transfected cells; host or cells: CHO-K1. Particulars: Table 1; CHO-K1 cells expressing human M4; forskolin 7.5 μM + acetylcholine EC20 (0.2 nM). How it is done: The potency of M4 PAMs was determined using a cell-based cyclic adenosine monophosphate assay. The assay was performed with CHO-Kl cells stably expressing untagged human M4 receptor and cAMP was quantified using the Nano-TRF Detection Assay kit (Roche, Cat. No. 05214386) as described in the kit instructions. The cells were grown in Ham's F-12 Nutrient mix supplemented with 10% FBS and 200 μg/ml geneticin until they reached 80% confluency. The cells were washed with PBS, detached with accutase and resuspended in assay buffer consisting of HBSS and 0.1% BSA. They were then seeded in black 384-well plates (Corning, Cat. No. 3764) at a density of 20,000 cells/20 μl per well until the addition of compounds.
Test compounds were serially diluted 1:2 in 100% DMSO and spotted in 384-well plates at 0.5 μl/well. The compounds were then diluted in water containing IBMX (Sigma, Cat. No. 17018) and a sample (5 μl) was added to the cells for 15 minutes at 37° C./5% CO2. After this incubation the cells were stimulated with a combination of forskolin (7.5 μM) and acetylcholine EC20 (0.2 nM) in assay buffer for 30 minutes at 37° C./5% CO2. The assay was stopped by adding cAMP detection mix (15 μl/well, containing detergents for cell lysis) for one hour at RT.
The test plates were read using a SpectraMax i3x reader (Molecular Devices). The exported raw data was used to calculate the FRET signal based on the P-factor as per cAMP kit instructions. The data was normalized to the activity of acetylcholine plus forskolin, with 2 nM of acetylcholine plus 7.5 μM forskolin defined as 100% activity. Dose response curves were fitted to the percent activity data of the compounds using a sigmoidal dose response model (XLfit, IDBS) and the data were reported as EC50 and percent efficacy.
In general terms: Cyclic AMP is a second messenger, typically raised through Gs and lowered through Gi signalling.

Assay [2] has as its target T1, human M4 receptor. Kind of assay: Calcium flux assay using fluorescent imaging (M4 PAM FLIPR assay). It is filed as cell-based. Set-up: expressed in transfected cells; host or cells: CHO (monoclonal line, clone 2). The following applies: Table 1; CHO cells expressing human M4+Gqi5; acetylcholine EC20. How it is done: CHO cells were transfected with expression plasmid encoding the human M4 receptor and a Gqi5 construct to redirect Gi signaling to calcium. Stable cells were cloned by limiting dilution to yield a monoclonal cell line expressing human M4+Gqi5 (clone 2). The stable cells were grown in DMEM containing 10% FBS, 200 ug/ml Geneticin and 800 ug/ml Hygromycin at 37° C. in a 10% CO2 incubator at 95% humidity.
Calcium Flux Assay Using Fluorescent Imaging (“M4 PAM FLIPR” Assay)
On the afternoon before the assay, cells were plated at a density of 50,000 cells/well into black 96 well plates with clear bottoms to yield a confluent monolayer the next day. Hanks balanced salt solution, without phenol red, containing 20 mM HEPES (pH 7.3) and 2.5 mM probenecid (assay buffer) was prepared fresh for each experiment. Compound dilutions were made using a Beckman Biomek 2000 laboratory automation workstation, in assay buffer. The dye-loading buffer consisted of a final concentration of 2 μM Fluo-4-AM (dissolved in DMSO and pluronic acid) and 65 μg/ml amidoblack in assay buffer. The existing culture media was removed from the wells and 100 μl of the dye-loading buffer was added to each well and incubated for approximately 90 min at 37° C. in a 5% CO2 incubator at 95% humidity.
Calcium flux in the dye-loaded cells was measured with the fluorescence reader Hamamatsu FDSS 7000. To test compounds as agonists, compound addition (25 μl) was made 10 s into the fluorescent measurements and fluorescent response was recorded for 3 minutes. The fluorescence data was expressed as percentage of the fluorescence obtained by an EC100 concentration (3 μM) of the endogenous full agonist acetylcholine. Each test compound concentration-response curve was constructed using a four parameter logistic equation in Microsoft Excel XLFit as follows:
Y=Minimum+((Maximum−Minimum)/(1+10^(LogEC50−X)nH)).
The concentration of agonist that produced a half-maximal response is represented by the EC50 value. Maximum and minimum are the maximum and minimum fluorescence signal in % respectively. nH is the Hill slope.
To measure positive allosteric modulator activity 25 μl of an EC20 concentration of the endogenous agonist acetylcholine is added to the cells already pre-incubated with the test compound for 15 minutes.
The M4 PAM dose response is constructed using the agonist dose-response equation above. The concentration of PAM that produced a half-maximal response is represented by the EC50 value and the maximum signal measured is the PAM efficacy expressed in % of the EC100 (3 μM) acetylcholine response. • cAMP Assay for M4 Positive Allosteric Modulators (“M4 PAM cAMP” Assay)
On the technique in general: Calcium assays in cells follow changes in intracellular calcium, usually with a dye or a luminescent sensor.

On to `COc1ncc(N2CC[C@@H](C(=O)N3Cc4nc(C)c(Cl)c(C)c4C3)C2)cn1` [Example 33, (3-chloro-2,4-dimethyl-5,7-dihydropyrrolo[3,4-b]pyridin-6-yl)-[(3R)-1-(2-methoxypyrimidin-5-yl)pyrrolidin-3-yl]methanone], for which the EC50 on human M4 receptor [1] came to 242 nM; on human M4 receptor [2] it was 2370 nM.

Take `Cc1nc2c(c(C)c1Cl)CN(C(=O)[C@@H]1CCN(c3cnc(C(F)(F)F)nc3)C1)C2` [Example 32, (3-chloro-2,4-dimethyl-5,7-dihydropyrrolo[3,4-b]pyridin-6-yl)-[(3R)-1-[2-(trifluoromethyl)pyrimidin-5-yl]pyrrolidin-3-yl]methanone]: the EC50 worked out at 1940 nM at human M4 receptor [1] and 1950 nM at human M4 receptor [2].

Regarding `Cc1ccc(N2CC[C@@H](C(=O)N3Cc4nc(C)c(Cl)c(C)c4C3)C2)cn1` [Example 4, (3-chloro-2,4-dimethyl-5,7-dihydropyrrolo[3,4-b]pyridin-6-yl)-[(3R)-1-(6-methyl-3-pyridyl)pyrrolidin-3-yl]methanone], the EC50 turned out to be 690 nM at human M4 receptor [1] and 547 nM at human M4 receptor [2].

Take `Cc1nc2c(c(C)c1Cl)CN(C(=O)[C@@H]1CCN(c3ncc(C(F)(F)F)cn3)C1)C2` [Example 7, (3-chloro-2,4-dimethyl-5,7-dihydropyrrolo[3,4-b]pyridin-6-yl)-[(3R)-1-[5-(trifluoromethyl)pyrimidin-2-yl]pyrrolidin-3-yl]methanone]: the EC50 was 2080 nM on human M4 receptor [1] and 1010 nM at human M4 receptor [2].

Regarding `Cc1nc2c(c(C)c1Cl)CN(C(=O)[C@@H]1CCN(c3ccnc(C(F)(F)F)c3)C1)C2` [Example 21, (3-chloro-2,4-dimethyl-5,7-dihydropyrrolo[3,4-b]pyridin-6-yl)-[(3R)-1-[2-(trifluoromethyl)-4-pyridyl]pyrrolidin-3-yl]methanone], the concentration for a half-maximal effect (EC50) stood at 131 nM on human M4 receptor [1] and 550 nM at human M4 receptor [2].

On to `COCc1nc2c(c(C)c1Cl)CN(C(=O)[C@@H]1CCN(c3ccnc(C(F)F)c3)C1)C2` [Example 57, [3-chloro-2-(methoxymethyl)-4-methyl-5,7-dihydropyrrolo[3,4-b]pyridin-6-yl]-[(3R)-1-[2-(difluoromethyl)-4-pyridyl]pyrrolidin-3-yl]methanone], for which the EC50 at human M4 receptor [1] was 283 nM; at human M4 receptor [2], 99 nM.

Take `Cc1nc2c(c(C)c1Cl)CN(C(=O)[C@@H]1CCN(c3ccnc(C#N)n3)C1)C2` [Example 24, 4-[(3R)-3-(3-chloro-2,4-dimethyl-5,7-dihydropyrrolo[3,4-b]pyridine-6-carbonyl)pyrrolidin-1-yl]pyrimidine-2-carbonitrile]: the EC50 is 164 nM at human M4 receptor [1] and 235 nM at human M4 receptor [2].

With `COc1ccnc(N2CC[C@@H](C(=O)N3Cc4nc(C)c(Cl)c(C)c4C3)C2)n1` [Example 48, (3-chloro-2,4-dimethyl-5,7-dihydropyrrolo[3,4-b]pyridin-6-yl)-[(3R)-1-(4-methoxypyrimidin-2-yl)pyrrolidin-3-yl]methanone], the EC50 at human M4 receptor [1] was 8130 nM; on human M4 receptor [2], 2200 nM.

As for `Cc1nc2c(c(C)c1Cl)CN(C(=O)[C@@H]1CCN(c3cncc(OC(F)F)c3)C1)C2` [Example 17, (3-chloro-2,4-dimethyl-5,7-dihydropyrrolo[3,4-b]pyridin-6-yl)-[(3R)-1-[5-(difluoromethoxy)-3-pyridyl]pyrrolidin-3-yl]methanone], the EC50 on human M4 receptor [1] turned out to be 230 nM; on human M4 receptor [2], 240 nM.

For the compound `Cc1nc2c(c(C)c1Cl)CN(C(=O)[C@@H]1CCN(c3cnc(N(C)C)nc3)C1)C2` [Example 36, (3-chloro-2,4-dimethyl-5,7-dihydropyrrolo[3,4-b]pyridin-6-yl)-[(3R)-1-[2-(dimethylamino)pyrimidin-5-yl]pyrrolidin-3-yl]methanone], the concentration for a half-maximal effect (EC50) on human M4 receptor [1] stood at 1720 nM; at human M4 receptor [2], 1800 nM.

Regarding `COc1ccc(N2CC[C@@H](C(=O)N3Cc4nc(C)c(Cl)c(C)c4C3)C2)cn1` [Example 10, (3-chloro-2,4-dimethyl-5,7-dihydropyrrolo[3,4-b]pyridin-6-yl)-[(3R)-1-(6-methoxy-3-pyridyl)pyrrolidin-3-yl]methanone], the EC50 at human M4 receptor [1] is 1010 nM; on human M4 receptor [2] it was 1030 nM.

The term EC50 denotes the concentration that produces a half-maximal response.
